Entries after “also recorded” stand apart in the source; their conditions may differ. Like-named read-outs stand apart in the source and are kept apart here.
Legend:
[1] = In vivo BBB penetration of compound 2; conditions: mice
[2] = system: patient-derived glioma cells; assay: Secondary screening: self-renewal in patient-derived glioma cells; type: cell-based, human; conditions: patient-derived glioma cells (GBM)
Protocol: (§1) Cells were seeded under serum-free conditions into untreated plates in DMEM/F12 media, supplemented with 10 ml/500 mL of B27 (Invitrogen), 0.145 U/ml recombinant insulin (Eli Lilly, Indiana), 0.68 U/mL heparin (Fresenius Kabi, Illinois), 20 ng/ml fibroblast growth factor 2 (bFGF, Sigma) and 20 ng/ml epidermal growth factor (EGF, Sigma). After 10 days in culture, spheres formed from singles cells were counted. Certain compounds tested in sphere-forming assay according to the present disclosure are shown below. Results are shown in FIGS. 6, 7, 8, 9-19, 26, 33-37.

HK-374 glioma stem cells = assay: Sphere-forming assay: self-renewal of HK-374 glioma stem cells; type: cell-based, human; conditions: n=3
Description: FIG. 42. Inhibition of self-renewal of HK-374 glioma stem cells in the absence of radiation.
FIG. 43. Inhibition of self-renewal of HK-374 glioma stem cells in combination with 4 Gy.
Primary human glioma cell lines were established at UCLA as described (Hemmati et al., PNAS 2003; Characteristics of specific gliomasphere lines can be found in Laks et al., Neuro-Oncology 2016). Primary glioblastoma cells were propagated as gliomaspheres in serum-free conditions in T25 flasks in DMEM/F12, supplemented with B27, EGF, bFGF and heparin as described previously (Vlashi et al., Journal of the NCI, 2009, 101, 350-9). All cells were grown in a humidified atmosphere at 37° C. with 5% CO2. The unique identity of all patient-derived specimen was confirmed by DNA fingerprinting (Laragen, Culver City, CA). All lines were routinely tested for mycoplasma infection (MycoAlert, Lonza). […]
as §1, with “Certain compounds tested in sphere-forming assay according to the present disclosure are shown below. Results are shown in FIGS. 6, 7, 8, 9-19, 26, 33-37.” left out

[3] = Tolerability and body weight in mice; type: in vivo, NSG mice
[4] = PK study, plasma and brain concentration by mass spectrometry; type: in vivo; conditions: mice; for Kp: mouse, brain/plasma, 50 mg/kg
Protocol: FIGS. 38A and 38B. PK studies for MXC-017 and MXC-079 Mice were treated with a single dose of the novel compounds at 50 mg/kg. Plasma and brain samples were taken at indicated time points and compound concentration measured by mass spectrometry.
(§2) After two weeks of treatment the tumors were harvested, processed into single cells and the number of glioma cells with sphere-forming capacity (glioma stem cells) was determined in a functional assay (extreme limiting dilution assay). […] (FIG. 40A).

HK374 cells = assay: In vivo treatment of HK374 tumors, then in vitro extreme limiting dilution assay; parameters: species or system NSG mice
Protocol: FIGS. 39A-D. FIG. 39A NSG mice were injected with HK374 cells. After 2 weeks post grafting, mice received a single dose of 10 Gy and 5 daily injections/week of MXC-017 or saline for 2 weeks. Tumors were harvested and an in vitro extreme limiting dilution assay was performed. […] FIG. 39D Elimination of GSCs was reflected by the complete loss of cells with self-renewing capacity.
as §2

[5] = system: Nestin-positive glioma stem cells; assay: Immunofluorescent staining of brains of glioma bearing mice; type: in vivo; conditions: combined treatment with radiation and MXC-017
Description: (§3) FIGS. 41A-B. Immunofluorescent staining of brains of glioma bearing mice using antibodies against Olig2 and Nestin. Combined treatment with radiation and MXC-017 eliminated Nestin-positive glioma stem cells in the tumors while not effecting the sensitive normal tissue cell population of Olig2-positive oligodendrocytes in the brain. Nuclei were counterstained.

[6] = system: Olig2-positive oligodendrocytes; assay: as above; type: in vivo; conditions: combined treatment with radiation and MXC-017
Description: as §3

normal tissue cell lines = assay: Toxicity in normal tissue cell lines (NIH3T3 fibroblasts, EOC20 microglia, human astrocytes, murine neural stem/progenitor cells); type: cell-based; conditions: alone or in combination with radiation
Description: FIGS. 5A-D. Toxicity of the analogs MXC017, 079 and 021 in fibroblasts (NIH3T3, FIG. 5A), microglia cells (EOC20, FIG. 5B), human astrocytes (FIG. 5C) or murine neural stem/progenitor cells (FIG. 5D).
(§4) Compound 2 was identified in an unbiased phenotypic screen and MCX analogs were synthesized without knowledge of the actual molecular target. […] Western blotting confirmed inhibition of the downstream targets with downregulation of p-Erk, p-Akt and upregulation of cytosolic beta-catenin (FIG. 4).

[7] = system: non-stem glioblastoma cells; assay: Reprogramming assay (phenotype conversion, ZsGreen-cODC reporter, flow cytometry); type: cell-based, human; conditions: spontaneous and radiation-induced
Protocol: Primary glioblastoma cells were engineered to express a fusion protein of ZsGreen and the C-terminal degron of ornithine decarboxylase. This construct reports for lack of 26S proteasome activity and cells with low proteasome activity are enriched for cells with tumor-initiating properties. For reprogramming experiments, cells with low proteasome activity (ZsGreen-positive) were removed by FACS. ZsGreen-negative cells were treated and 5 days later the number of radiation-induced ZsGreen-positive cells was assessed by flow cytometry.

PDOX models of GBM = assay: Survival in PDOX models of GBM; type: in vivo, mice
[8] = Histology of major organs (kidneys, lung, spleen, heart, liver); type: in vivo, mice; conditions: 50 mg/kg, 2 weeks, 5 days on, 2 days off
cytosolic beta-catenin = assay: Western blotting of patient-derived glioblastoma cells; type: cell-based, human; conditions: Western blot
Description: as §4

p-ERK = assay: as above; type: cell-based, human; conditions: Western blot
Description: as §4

p-AKT = assay: as above; type: cell-based, human; conditions: Western blot
Description: as §4

[9] = alone or in combination with radiation
[10] = single dose 50 mg/kg, brain versus plasma, read-out: enrichment in brain tissue
[11] = read-out: brain to plasma ratio

With `C=C1c2ccccc2NC(=O)N1Cc1ccc(S(=O)(=O)N2CCCCC2)cc1` [Compound 2, 4-Methylene-3-(4-(piperidin-1-ylsulfonyl)benzyl)-3,4-dihydroquinazolin-2(1H)-one] the “BBB penetration in vivo” value [1] was “penetrates the BBB”, the “BBB penetration in vivo” value ([1]; listed as compound 2) was “confirmed the in silico prediction of BBB penetration” and the inhibition of self-renewal [2] was “inhibits self-renewal”. The inhibition of self-renewal ([2]; listed as compound 2) was “confirming activity”.
With `O=C(NCc1ccc(S(=O)(=O)N2CCCCC2)cc1)n1ccc2cc(Cl)ccc21` [MHD003, 5-chloro-N-(4-(piperidin-1-ylsulfonyl)benzyl)-1H-indole-1-carboxamide] the “self renewal of glioma stem cells, % of irradiated controls” value (HK-374 glioma stem cells; in combination with 4 Gy, controls DMSO, p<0.0001) was 6% and the “self-renewal of HK-374 glioma stem cells in the absence of radiation (reduced to)” value (HK-374 glioma stem cells; unirradiated cells, one-way ANOVA) was 14%.
For `O=C(NCc1ccc(S(=O)(=O)N2CCCCC2)cc1)n1ccc2ccccc21` [MXC017, N-(4-(Piperidin-1-ylsulfonyl)benzyl)-1H-indole-1-carboxamide], the tolerability ([3]; 5 daily injections/week for 2 weeks) was “well tolerated; also recorded: well tolerated in mice with no acute clinical toxicity”, the “body weight during observation time of 2 weeks” value [3, 9] was “allowed animals to gain weight” and the peak brain concentrations [4] was “in the micromolar range”. The Kp [4, 10] was 4.55, the Kp [4, 11] was 4.55 and the “number of GSCs” value (HK374 cells; MXC-017 alone, 2 weeks treatment, extreme limiting dilution assay) was “significantly reduced”. The “frequency of glioma stem cells” value (HK374 cells; [9]) was “significantly reduced”, the “number of sphere forming cells” value (HK374 cells; [9]) was “reduced the number of sphere forming cells” and the “number of GSCs” value (HK374 cells; combination of radiation (single dose 10 Gy) and MXC-017) was “eliminated all GSCs”. For the same molecule, the “Nestin-positive glioma stem cells in the tumors” value [5] was “eliminated”, the “effect on oligodendrocytes (normal tissue) in the brain” value [6] was “not effecting; also recorded: had no effect” and the “toxicity in normal tissue cell lines” value (normal tissue cell lines) was “no relevant toxicity”. For the same molecule, the “phenotype conversion of non-stem glioma cells into glioblastoma-initiating cells” value ([7]; listed as MCX017) was “prevent spontaneous and radiation-induced phenotype conversion; also recorded: prevented radiation-induced phenotype conversion”, the median survival (PDOX models of GBM; MXC-017 alone, five daily doses/week) was “small but significant increase” and the median survival (PDOX models of GBM; single dose 10 Gy plus MXC-017 50 mg/kg, 5 days on, 2 days off, prolonged from 29 days, p<0.0001 log-rank) was 60 days. The “histological signs of toxicity in major organs” value [8] was “did not reveal any toxicity”, the “cytosolic beta-catenin level (TNIK target)” value (cytosolic beta-catenin) was “stabilization” and the “p-ERK level (FLT3 target)” value (p-ERK) was “down-regulation”. For the same molecule, the “p-AKT level (FLT3 target)” value (p-AKT) was “down-regulation”.
With `CCN(CC)S(=O)(=O)c1ccc(CNCc2ccccc2N)cc1` [MXC021, 4-(((2-Aminobenzyl)amino)methyl)-N,N-diethylbenzenesulfonamide] the “toxicity in normal tissue cell lines” value (normal tissue cell lines) was “no relevant toxicity”.
In the case of `O=C(NCc1ccc(S(=O)(=O)N2CCCCCC2)cc1)n1ccc2ccccc21` [MXC079, N-(4-(Azepan-1-ylsulfonyl)benzyl)-1H-indole-1-carboxamide], the peak brain concentrations [4] is reported as “in the micromolar range”, the Kp [4, 10] is reported as 2.63 and the Kp [4, 11] is reported as 2.6. The “toxicity in normal tissue cell lines” value (normal tissue cell lines) was “no relevant toxicity”, the “phenotype conversion of non-stem glioma cells into glioblastoma-initiating cells” value ([7]; listed as MCX079) was “prevent spontaneous and radiation-induced phenotype conversion; also recorded: prevented radiation-induced phenotype conversion” and the “cytosolic beta-catenin level (TNIK target)” value (cytosolic beta-catenin) was “stabilization”. For the same molecule, the “p-ERK level (FLT3 target)” value (p-ERK) was “down-regulation” and the “p-AKT level (FLT3 target)” value (p-AKT) was “down-regulation”.

Reference: patent US20260166051A1, “COMPOUNDS AND METHODS FOR TREATING CANCER” (The Regents of the University of California, priority 2022, published 2026)
